Results as given in paper PMC9596752, “Investigation of anti-diabetic potential and molecular simulation studies of dihydropyrimidinone derivatives” (Frontiers in Endocrinology, 2022).
In brackets after ≈: the same amount, converted by molar mass.

Molecular target: α-glucosidase
Assay: in vitro α-glucosidase inhibition assay, absorbance at […] nm
Assay type: biochemical, Saccharomyces cerevisiae

IC50: 1.02 µg/mL (≈ 3.04 µM)
SMILES: O=C1NC2=C(C(=O)N(Cc3ccccc3)C2)C(c2ccc(O)cc2)N1 (stereo not shown) [A, 6-benzyl-4-(4-hydroxyphenyl)-3,4,6,7-tetrahydro-1H-pyrrolo[3,4-d]pyrimidine-2,5-dione]
